According to patent US20160274087A1, “SCREENING ASSAY FOR AGENTS THAT INFLUENCE BETA CELL NUMBER AND/OR PHENOTYPE” (VRIJE UNIVERSITEIT BRUSSEL, priority 2013, published 2016):

Tests used:
Assay type in all cases: cell-based
rat beta cells [1] = assay: Glucose utilization and oxidation by isolated beta cells; settings: 6-day HC treatment
Procedure: FIG. 9: Glucose utilization and oxidation by isolated beta cells after treatment with HC. Purified rat beta cells were cultured for six days in control medium (white squares) or with HC (black triangles) at 10 mM glucose. Glucose utilization (A) was determined by the rate of D-(5-^3H)glucose conversion into ^3H2O and glucose oxidation (B) by that of D-(U-^14C)glucose into ^14CO2 during a 2 h incubation period at the indicated concentrations of glucose without HC. Values represent means±SEM, n=6; *, p<0.05 versus control.
Because GC signaling controls metabolic processes including glucose metabolism and we have previously reported that glucose regulates rat beta cell numbers through effects on beta cell survival and proliferation (Assefa et al., 2014)(Example 1), we investigated whether HC-induced beta cell proliferation is associated with a change in glucose metabolism. First, the metabolic effect of a 6-day treatment with HC was analyzed by 2 h glucose utilization and oxidation rates at different glucose concentrations. […] Further, HC treatment doubles the rates of both utilization and oxidation at 10 mM glucose as compared to those in control cells (p<0.05).

rat beta cells [2] = assay: Number of living beta cells in culture (Hoechst 33342/propidium iodide whole-well imaging counts; expansion assay)
Procedure: (§1) Beta cells were FACS-purified from islet-cell enriched suspensions (Pipeleers et al., 1985) prepared from neonatal (2-3 days-old) and adolescent or adult (8 or 40-week-old, male) Wistar rats (Janvier Bioservices, France); their purity was, respectively 70-75% and over 90%. Sorted cells were counted in a hemocytometer, seeded (day 0) and cultured for up to 15 days in serum-free Ham's-F10 medium at 5, 10 or 20 mmol/l glucose, supplemented with 2 mmol/l L-glutamine, 50 μM 3-isobutyl-1-methylxanthine, 0.5% Albumax-I, penicillin (100 U/ml) and streptomycin (0.1 mg/ml). The 10 mmol/l glucose condition is known to maintain beta cell survival over 9-days (Ling et al., 1994; Ling and Pipeleers, 1994). Medium and cells were retrieved after selected culture periods and assayed for insulin content; data were expressed as a function of the number of living beta cells that was determined in parallel wells.
On day 1, 9 and 15 of culture, total numbers of living beta cells per well were determined by semi-automatic cell count, after Hoechst 33342 (Ho) and propidium iodide (PI) staining. Numbers of living beta cells were obtained by subtracting the PI-positive cell numbers from the Ho-positive cell numbers, and correcting for the percent insulin-negative cells, as determined following insulin-immunofluorescence staining. They were expressed as percent of the numbers on day 1. Each condition was also evaluated for increases in the percentage of proliferating beta cells (incorporating the thymidine-analogue 5-ethynyl-2′-deoxyuridine, EdU; 100 μmol/l). To detect beta cells that underwent two successive cycles, cells were sequentially exposed to two different thymidine-analogs, first EdU from day 3 to 6, and then BrdU (100 μmol/l) from day 7 to 10, with a 24-hour label-free period in between. EdU-positive (EdU^+) nuclei were detected with the Click-iT Assay kit (Invitrogen), while BrdU-positive (BrdU^+) nuclei were identified with anti-BrdU antibody.
Absolute number of cells was determined by whole-well imaging using the BD-PathwayBioimager855 (BD-Biosciences). IPLab and AttoVision software packages (BD-Biosciences) were used for image background subtraction, segmentation and quantification.
Experimental procedures for isolation of beta cells from neonatal (2-3 days old) and adult (8 or 40 week old, male) Wistar rats (Janvier Bioservices, France) and analysis of their number, viability and proliferation activity in culture have been described before (Assefa et al., 2014). Sorted beta cells were seeded in 804G matrix-coated plates (designated as day 0) and the numbers and viability of seeded cells at the start of all experiments were determined on day 1 (24 h after seeding). The cells were cultured in control medium, which is a serum-free Ham's F10 medium supplemented with 2 mM L-glutamine, 50 μM 3-isobutyl-1-methylxanthine, 0.5% Albumax I, penicillin (100 U/ml), streptomycin (0.1 mg/ml) and, unless indicated otherwise, 10 mM glucose.
Sorted beta cells were seeded in 384-well or 6-well plates coated with 804G matrix, and kept in culture for up to 15 days at 37° C. 5% CO2 using Ham F10 supplemented with 1 mM L-glutamine, 0.1 mg/ml streptomycin, 0.075 mg/ml penicillin, 50 μM of isobutyl-1-methylxanthine (IBMX) at 10 mM D-glucose with and without synthetic GCs (6 methyl-prednisolone (6MP), dexamethasone (DEX), GR-modulators (compound A (CPA), mifepristone (MIF), and NFκB inhibitors (JSH-23 en Bay11-7085). Total cell number and beta cell viability was evaluated after incubation with Hoechst 33342 and propidium iodide. All chemicals were from Sigma Life Sciences or Merck. Quantification of cell numbers and analysis of beta-cell viability was done using the Pathway Bioimager (BD Biosciences) and using IPlab and Attovision software for background subtraction as described prior (Assefa et al., 2014).

INS1 832/13 cell line = assay: Proliferation of INS1 832/13 cell line in serum-free medium; settings: serum-free culture medium; data not shown
rat beta cells [3] = assay: Cellular insulin content, insulin release and glucose-stimulated insulin secretion of cultured beta cells; settings: for Insulin Content Day 15: HC
Procedure: as §1

alpha cells = assay: Alpha cell numbers in cultured dissociated rat islet cells; settings: HC-containing medium; control 40±3%
Source text: We next tested cell type-specificity of HC-induced proliferation by using dissociated rat islet cells containing 15-20% alpha cells and 10-15% other cell types. […] Non-endocrine pancreatic cells were virtually undetectable on day 15, presumably died out due to the serum-free culture conditions.

C[C@]12CCC(=O)C=C1CC[C@@H]1[C@@H]2[C@@H](O)C[C@@]2(C)[C@H]1CC[C@]2(O)C(=O)CO [Hydrocortisone, hydrocortisone]
rates of glucose utilization and oxidation compared to control cells (rat beta cells [1]; 10 mM glucose): doubles | increase of glucose utilization and oxidation over control cells (rat beta cells [1]; 20 mM glucose): 50% | Number of Living Cells on Day 15 (% of Day 1) (rat beta cells [2]; 9 days, HC, 6 days, control): 168.1 ± 6.8 % of Day 1 | Number of Living Cells on Day 15 (% of Day 1) (rat beta cells [2]; 15 days, HC (Table 7), control 102.5 ± 6.1): 173.9 ± 7.1 % of Day 1 | Number of Living Cells on Day 15 (% of Day 1) (rat beta cells [2]; HC alone, 15 days (Table 6)): 156 ± 4 % of Day 1 | Number of Living Cells on Day 15 (% of Day 1) (rat beta cells [2]; HC, glucose 7.5 high-responsive cells, control 99.0 ± 1.5): 182.0 ± 4.9 % of Day 1 | Number of Living Cells on Day 15 (% of Day 1) (rat beta cells [2]; HC, glucose 7.5 low-responsive cells, control 94.0 ± 9.2): 117.3 ± 5.2 % of Day 1 | Number of Living Cells on Day 15 (% of Day 1) (rat beta cells [2]; HC, mixed beta cell population, control 110.7 ± 5.0): 169.0 ± 9.3 % of Day 1 | increase in absolute number of living beta cells in culture (rat beta cells [2]; two-weeks culture): near population doubling | proliferation of INS1 832/13 cell line (INS1 832/13 cell line): does not induce the proliferation | Insulin Content Day 15 (rat beta cells [3]; 9 days, 6 days, control): 33.1 ± 2.9 ng/10^3 cells | Insulin Content Day 15 (rat beta cells [3]; 15 days, control 35.3 ± 3.6): 9.3 ± 0.7 ng/10^3 cells | Insulin Content Day 9 (rat beta cells [3]; continuous HC, control 23.7 ± 0.9): 14.0 ± 1.4 ng/10^3 cells | loss of insulin content on day 9 (rat beta cells [3]; continuous incubation with HC): 56% | loss of insulin content on day 15 (rat beta cells [3]; continuous incubation with HC): more than 70% | alpha cell numbers after 15-day culture (% of the starting level) (alpha cells): 57±1%
